These results are taken from article PMC5655428, “Discovery and pharmacological characterization of a new class of prolyl-tRNA synthetase inhibitor for anti-fibrosis therapy” (PLoS ONE, 2017).

As usually defined, the IC50 is the concentration that inhibits the measured activity by half.

For data set [1] the following is noted: mouse, in vivo.
Method: The experimenters were blinded to the treatments given to the animals and to the biochemical and histological analyses and the data analyses. Eight-week-old C3H/He male mice (weighing 23~28 g, Japan SLC, Inc., Hamamatsu, Japan) were used for all the in vivo experiments. […] These animals were maintained on a 12/12 h light/dark cycle with constant temperature (23 ± 2°C) under specific pathogen-free conditions. Standard chow diet and water were available ad libitum.
After acclimatization for 1 weeks, animals were randomly divided according to body weight and treated for 3 to 5 consecutive days as follows. The ear and dorsal skin of mouse were intradermally injected with 20 μL (100 μL, dorsal skin) PBS or 500 ng TGF-β in PBS under anaesthesia with 3–4% sevoflurane. Injections were continued in this manner daily for 3 days (days 0, 1 and 2) or 5 days (days 0, 1, 2, 3 and 4). Treatment protocol included the daily topical application of T-3833261 or HF cream on the ear (40 μL/ear) 1 h before injections into the ear. A vehicle without compounds was applied to control mice. The topical material contained sorbitan sesquioleate (50 g), lanolin (50 g), liquid paraffin (250 g), propylene glycol (50 g), 90% lactic acid (1.5 g), T-3833261 (0.1, 0.3 and 1 g) or HF (0.1 g), and distilled water as the rest material. Topical application of compound was continued for 7 days. Mice were euthanized by cervical dislocation under sevoflurane anesthesia at 3 or 5 days after last TGF-β injection and the ear surrounding the TGF-β injection site was harvested with 8 μm biopsy punch under anesthesia.
Data set [2] concerns human skin fibroblast. As to the kind of experiment: Transcriptome analysis (AmpliSeq) and gene signature analysis. It counts as cell-based. The following applies: 300 nM, 24 h; >1.2-fold change, FDR < 0.05. How it is done: The Ion AmpliSeq Transcriptome Human Gene Expression Kit (ThermoFisher, Waltham, MA, USA) enables the simultaneous measurement of the expression levels of over 20,000 human genes in a single assay. AmpliSeq human-transcriptome libraries were constructed and sequenced by using the Ion Proton platform, according to the manufacturer’s instructions. Briefly, total RNA was extracted from human skin fibroblast treated with compounds for 24 h using the RNeasy Mini Kit. Reverse transcription was performed on 10 ng of the prepared total RNA samples using the AmpliSeq Whole Transcriptome primers with the included SuperScript® VILO^TM cDNA Synthesis kit (Life Technologies). Amplicons were ligated to adapters, and the resulting libraries were purified using Agencourt AMPure XP reagents (Beckman Coulter, Brea, CA, USA) and diluted to the concentration of 75 pM. Templated libraries were sequenced with the Ion Proton sequencer (ThermoFisher). AmpliSeq sequencing data were analyzed using the Ion Torrent Mapping Alignment Program. Identification of differentially expressed genes (DEGs) and comparative gene signature analysis were done in NextBio (http://nextbio.com). Gene expression data was taken by using our ATP-competitive PRS inhibitor analog (IC50: < 3.0 nM). […]

The target of data set [3] is 27 kinases. As to the kind of experiment: kinase panel experiment. Format: biochemical. The following applies: almost no inhibitory activity, read-out: IC50 against 27 kinases.

`O=C(CC1NCCCC1O)Cn1cnc2cc(Br)c(Cl)cc2c1=O` (centres unmarked) [HF, Halofuginone, reference compound]: in data set [1], the “Body weight day 0” value turned out to be 22.5 ± 0.3 g, the “Body weight day 7” value stood at 23.7 ± 0.3 g and the “body weight of the mice after one week of continuous topical application” value is reported as “did not change”. The “number of genes with altered expression levels compared to vehicle-treated cells” value in data set [2] is 8229 genes.
On to `Cn1cc(-c2cc(F)cc(CNC(=O)c3nccc4nc(C5CCCC5)[nH]c34)c2)cn1` [T-3833261, 2-Cyclopentyl-N-(3-fluoro-5-(1-methyl-1H-pyrazol-4-yl)benzyl)-3H-imidazo[4,5-c]pyridine-4-carboxamide], for which, in data set [3], the IC50 was more than 1 µM.
